Reference: paper PMC9863987, “Identification of Aryl Polyamines Derivatives as Anti-Trypanosoma cruzi Agents Targeting Iron Superoxide Dismutase” (Pharmaceutics, 2022)

Tests used:
[1] = test system: T. cruzi Tulahuen strain amastigotes; assay: Screening against intracellular amastigotes in Vero cells, Tulahuen strain (Giemsa counting); type: cell-based, Trypanosoma cruzi
Procedure: TINF/CH/1956/Tulahuen, DTU VI [26]—were grown at 28 °C in Gibco® RPMI 1640 Medium supplemented as previously reported, and used for in vitro screening. Trypanocidal activity against amastigotes was tested as previously reported. In brief, bloodstream trypomastigotes (BTs), obtained by cardiac puncture from infected BALB/c mice, were used to infect 1 × 10^4 Vero cells·well^−1 in 24-well plates with rounded coverslips at a multiplicity of infection (MOI) ratio of 10:1. After 24 h of infection, non-internalized trypomastigotes were washed and the infected cells were treated by adding the compounds in serial dilutions from 50 to 0.5 µM in […] for 72 h. BZN and untreated growth controls were also included in triplicate. Later, the number of amastigotes and infected cells were determined in Giemsa stained preparations by analysing 500 host cells randomly distributed in microscopic fields. The trypanocidal activity was expressed as the IC50 using GraphPad Prism 6 software (version 6.07).

[2] = test system: epimastigotes of T. cruzi Arequipa strain; assay: Mitochondrial membrane potential by flow cytometry (rhodamine 123); type: cell-based, Trypanosoma cruzi; settings: compounds at IC25 concentrations, 72 h; KCN 10 mM, 40 min; mean of three ± SD
[3] = Clinical analysis of heart, kidney and liver markers in serum of treated mice; type: in vivo, BALB/c mice; settings: n = 3
Procedure: (§1) Infection was carried out by intraperitoneal inoculation of 5 × 10^5 BTs of T. cruzi Arequipa strain per mouse in 0.2 mL PBS [26]. The infection was monitored and on the 10th day post-infection (dpi), when BTs were visible in the bloodstream, the infection was confirmed.
(§2) Mice were divided into four groups (n = 3 per group): 0, negative control group (uninfected and untreated mice); I, positive control group (infected and untreated mice); II, BZN group (mice infected and treated with BZN); III, 15 group (mice infected and treated with 15).
(§3) The treatment for mice treated in the acute and chronic CD began when the infection was confirmed (10th dpi) and was stablished that the animals had entered the chronic CD (75th dpi), respectively (Scheme 1). Compound 15 and BZN were orally administered for 5 consecutive days at a dose of 20 mg·Kg^−1·day^−1.
Blood samples were collected in several dpi (Scheme 1) and processed according the method previously reported to obtain serum. Serum samples were then aliquoted to ELISA test and clinical analysis.
Heart, kidney and liver markers were measured from blood in several dpi (Scheme 1) with Cromakit® as previously reported. Mean and standard deviations were calculated using the levels measured for different populations of sera (n = 15, n = 3), and the confidence interval were also calculated based on a confidence level of 95% (100 × (1 − α) = 100 × (1 − 0.05)).

[4] = test system: T. cruzi SN3 strain epimastigotes; assay: Screening against extracellular epimastigotes, SN3 strain (resazurin); type: cell-based, Trypanosoma cruzi
Procedure: (§4) Three different T. cruzi […] strains—MHOM/Pe/2011/Arequipa, discrete typing unit (DTU) V [26]; IRHOD/CO/2008/SN3, DTU I [27]; TINF/CH/1956/Tulahuen, DTU VI [26]—were grown at 28 °C in Gibco® RPMI 1640 Medium supplemented as previously reported, and used for in vitro screening.
(§5) Trypanocidal activity against epimastigotes was tested as previously reported. In brief, 5 × 10^5 mL^−1 epimastigotes culture medium were treated by adding the compounds in serial dilutions from 100 to 0.2 µM in 96-well plates (200 µL·well^−1) for 48 h. BZN and untreated growth control were also included in triplicate. Later, 20 μL of resazurin sodium salt (Sigma-Aldrich, St. Louis, MO, USA) was added, and the plates were incubated for another 24 h. Finally, the absorbance of the wells was measured at 570/600 nm and related to the control. The trypanocidal activity was expressed as the IC50 (inhibitory concentration 50) value using GraphPad Prism 6 software.

[5] = test system: T. cruzi Tulahuen strain epimastigotes; assay: Screening against extracellular epimastigotes, Tulahuen strain (resazurin); type: cell-based, Trypanosoma cruzi
Procedure: as §4, §5

[6] = test system: T. cruzi Arequipa strain epimastigotes; assay: Screening against extracellular epimastigotes, Arequipa strain (resazurin); type: cell-based, Trypanosoma cruzi
Procedure: as §4, §5

[7] = test system: T. cruzi Arequipa strain trypomastigotes; assay: Screening against bloodstream trypomastigotes, Arequipa strain (resazurin); type: cell-based, Trypanosoma cruzi
[8] = type: in vivo, BALB/c mice; settings: oral 20 mg/Kg/day for 5 days; acute and chronic infections
Procedure: (§6) All animal work (Scheme 1) and maintenance was performed under RD53/2013 and approved by the Ethics Committee on Animal Experimentation (CEEA) of the University of Granada, Spain. Female BALB/c mice (aged 10–12 weeks and 20–22 g) were used in the subsequent in vivo assays.
as §1, §2, §3

T. cruzi Arequipa strain [9] = assay: Monitoring of acute parasitaemia by counting in infected BALB/c mice; type: in vivo, Trypanosoma cruzi; settings: acute infection
Procedure: as §6, §1, §2, §3
[…]. The fresh blood microscopic examination was performed from the 7th day until the day when parasitaemia was not detected (Scheme 1).

[10] = test system: T. cruzi SN3 strain trypomastigotes; assay: Screening against bloodstream trypomastigotes, SN3 strain (resazurin); type: cell-based, Trypanosoma cruzi
[11] = test system: T. cruzi Tulahuen strain trypomastigotes; assay: Screening against bloodstream trypomastigotes, Tulahuen strain (resazurin); type: cell-based, Trypanosoma cruzi
T. cruzi Arequipa strain [12] = assay: Infection reactivation by cyclophosphamide immunosuppression in infected BALB/c mice; type: in vivo, Trypanosoma cruzi; settings: oral 20 mg/Kg/day for 5 days, related to control group
[13] = treatment in acute phase, 16th dpi (2 days after treatment)
[14] = treatment in acute phase, necropsy day
[15] = treatment in chronic phase, 81th dpi (2 days after treatment)
[16] = treatment in chronic phase, necropsy day
[17] = IC50 Vero cells/IC50 epimastigotes
[18] = IC50 Vero cells/IC50 trypomastigotes
[19] = Trypanosoma cruzi, trypomastigotes, 24 h + 4 h resazurin, mean of three ± SD

c1cc2nc(c1)CNCCN(CCNCc1ccc3ccc4ccc(CNCCN5CCNCc6cccc(n6)CNCC5)nc4c3n1)CCNC2 [Compound 15]
Selectivity Index T. cruzi Tulahuen Strain A ([1]; IC50 Vero cells/IC50 amastigotes): 96.3
IC50 ([1]; Trypanosoma cruzi, TULAHUEN, amastigotes in Vero cells, 72 h, mean of three ± SD): 6.8 ± 0.7 µM
Inhibition on mitochondrial membrane potential with respect to untreated epimastigotes [2]: 43.1%
ALP, variation over the range [3, 13]: = (variation ≤ 10%)
ALT/GPT, variation over the range [3, 13]: ++ (20-30% increase/decrease over the range)
AST/GOT, variation over the range [3, 13]: ++ (20-30% increase/decrease over the range)
CK-MB, variation over the range [3, 13]: -- (20-30% increase/decrease over the range)
LDH, variation over the range [3, 13]: = (variation ≤ 10%)
Total bilirubin, variation over the range [3, 13]: + (10-20% increase/decrease over the range)
Urea, variation over the range [3, 13]: - (10-20% increase/decrease over the range)
Uric acid, variation over the range [3, 13]: -- (20-30% increase/decrease over the range)
ALP, variation over the range [3, 14]: = (variation ≤ 10%)
ALT/GPT, variation over the range [3, 14]: + (10-20% increase/decrease over the range)
AST/GOT, variation over the range [3, 14]: + (10-20% increase/decrease over the range)
CK-MB, variation over the range [3, 14]: = (variation ≤ 10%)
LDH, variation over the range [3, 14]: = (variation ≤ 10%)
Total bilirubin, variation over the range [3, 14]: + (10-20% increase/decrease over the range)
Urea, variation over the range [3, 14]: = (variation ≤ 10%)
Uric acid, variation over the range [3, 14]: = (variation ≤ 10%)
ALP, variation over the range [3, 15]: = (variation ≤ 10%)
ALT/GPT, variation over the range [3, 15]: + (10-20% increase/decrease over the range)
AST/GOT, variation over the range [3, 15]: + (10-20% increase/decrease over the range)
CK-MB, variation over the range [3, 15]: - (10-20% increase/decrease over the range)
LDH, variation over the range [3, 15]: = (variation ≤ 10%)
Total bilirubin, variation over the range [3, 15]: ++ (20-30% increase/decrease over the range)
Urea, variation over the range [3, 15]: -- (20-30% increase/decrease over the range)
Uric acid, variation over the range [3, 15]: --- (30-40% increase/decrease over the range)
ALP, variation over the range [3, 16]: = (variation ≤ 10%)
ALT/GPT, variation over the range [3, 16]: = (variation ≤ 10%)
AST/GOT, variation over the range [3, 16]: = (variation ≤ 10%)
CK-MB, variation over the range [3, 16]: = (variation ≤ 10%)
LDH, variation over the range [3, 16]: = (variation ≤ 10%)
Total bilirubin, variation over the range [3, 16]: + (10-20% increase/decrease over the range)
Urea, variation over the range [3, 16]: - (10-20% increase/decrease over the range)
Uric acid, variation over the range [3, 16]: - (10-20% increase/decrease over the range)
Selectivity Index T. cruzi SN3 Strain E [4, 17]: 38.7
IC50 ([4]; Trypanosoma cruzi, epimastigotes, 48 h treatment + 24 h resazurin, mean of three ± SD, read-out: Activity IC50 T. cruzi SN3 Strain E): 16.9 ± 1.4 µM
Selectivity Index T. cruzi Tulahuen Strain E [5, 17]: 57.4
IC50 ([5]; Trypanosoma cruzi, TULAHUEN, epimastigotes, 48 h treatment + 24 h resazurin, mean of three ± SD, read-out: Activity IC50 T. cruzi Tulahuen Strain E): 11.4 ± 1.1 µM
Selectivity Index T. cruzi Arequipa Strain E [6, 17]: 101.7
IC50 ([6]; Trypanosoma cruzi, epimastigotes, 48 h treatment + 24 h resazurin, mean of three ± SD, read-out: Activity IC50 T. cruzi Arequipa Strain E): 6.4 ± 0.6 µM
Selectivity Index T. cruzi Arequipa Strain T [7, 18]: 409.3
IC50 [7, 19]: 1.6 ± 0.1 µM
death or body mass loss of treated mice [8]: none of the mice died or lost more than 10% body mass
parasitaemia reduction on the day of maximum parasitaemia (T. cruzi Arequipa strain [9]; oral 20 mg/Kg/day for 5 days from 10th dpi, vs untreated control): ~ 65%
parasitaemia undetectable, days before control mice (T. cruzi Arequipa strain [9]; oral 20 mg/Kg/day for 5 days, control detectable up to 50 dpi): 5 days
Selectivity Index T. cruzi SN3 Strain T [10, 18]: 62.0
IC50 [10, 19]: 10.6 ± 0.9 µM
Selectivity Index T. cruzi Tulahuen Strain T [11, 18]: 83.6
IC50 ([11]; Trypanosoma cruzi, TULAHUEN, trypomastigotes, 24 h + 4 h resazurin, mean of three ± SD): 7.8 ± 0.7 µM
reactivation of parasitaemia after immunosuppression (T. cruzi Arequipa strain [12]; treatment in the acute infection): 60%
reactivation of parasitaemia after immunosuppression (T. cruzi Arequipa strain [12]; treatment in the chronic infection (from 75th dpi)): 26%
